Test results: PMC10951066, “The self-reactive FVIII T cell repertoire in healthy individuals relies on a short set of epitopes and public clonotypes” (Frontiers in Immunology, 2024)

Key:
HLA-DRB1*0301 = HLA-DRB1*0301 (Homo sapiens, UniProt P01903+P01911, A100K/A102G/A103R/A169T/F55Y/I96L/K41T/L162R/M171V/P40S/Q125H/Q178H/Q39Y/R42S/S66N/T106N/T262R/W38E/Y61H); test: Peptide-MHCII competition binding assay; conditions: competition ELISA, pH 5.9, peptide 90.000nM – 0.9nM, HLA-DRB1 30 nM, biotinylated peptide 15nM, duplicate wells; ratios below 10 = good binding; reference peptide SFLLTDLINRRTPRVDGQ
HLA-DRB1*1501 = HLA-DRB1*1501 (Homo sapiens, UniProt P01903+P01911); test: Peptide-MHCII competition binding assay; conditions: competition ELISA, pH 5.9, peptide 90.000nM – 0.9nM, HLA-DRB1 30 nM, biotinylated peptide 15nM, duplicate wells; ratios below 10 = good binding; reference peptide ENPVVHFFKNIVTPR

Row | Sequence | Ratio IC50 DRB1*0301 (HLA-DRB1*0301) | Ratio IC50 DRB1*1501 (HLA-DRB1*1501)
1 | ATRRYYLGAVELSWDYMQSD [P20-39, 20-mer FVIII peptide, A1 domain] | 850 | 
2 | DHLFNIAKPRPPWMGLLGPT [P75-94, 20-mer FVIII peptide, A1 domain] | 40 | 0.0
3 | HPQSWVHQIALRMEVLGCEA [P2328-2347, 20-mer FVIII peptide, C2 domain] | 0.0 | 
4 | KARLHLQGRSNAWRPQVNNP [P2226-2245, 20-mer FVIII peptide, C2 domain] | 33 | 0.6
5 | KEPFSWIKVDLLAPMIIHGI [P2084-2103, 20-mer FVIII peptide, C1 domain] | 6.6 | 
6 | KKEEYKMALYNLYPGVFETV [P1986-2005, 20-mer FVIII peptide, A3 domain] |  | 0.4
7 | KLARLHYSGSINAWSTKEPF [P2068-2087, 20-mer FVIII peptide, C1 domain] |  | 20
8 | LGQFLLFCHISSHQHDGMEA [P322-341, 20-mer FVIII peptide, A1 domain] |  | 0.05
9 | LLTRYLRIHPQSWVHQIALR [P2320-2339, 20-mer FVIII peptide, C2 domain] | 114 | 0.0
10 | LSHVDLVKDLNSGLIGALLV [P178-197, 20-mer FVIII peptide, A1 domain] | 0.05 | 95
11 | PPIIARYIRLHPTHYSIRST [P2161-2180] | 21 | 0.05
12 | RHYFIAAVERLWDYGMSSSP [P1715-1734, 20-mer FVIII peptide, A3 domain] |  | 77
13 | SLYISQFIIMYSLDGKKWQT [P2114-2133, 20-mer FVIII peptide, C1 domain] | 30 | 4
14 | VHSIFLEGHTFLVRNHRQAS [P285-304, 20-mer FVIII peptide, A1 domain] | 58 | 11
15 | YDTVVITLKNMASHPVSLHA [P100-119, 20-mer FVIII peptide, A1 domain] | 30 | 0.5
